Like-named read-outs stand apart in the source and are kept apart here.
Key:
TIP60-KAT5 = TIP60-KAT5 (Homo sapiens (Human), UniProt Q92993); experiment: Acetyltransferase biochemical assay (AlphaScreen), KAT5; settings: 1 μM AcCoA, histone H4
HBO-KAT7 = HBO-KAT7 (Homo sapiens (Human), UniProt O95251); experiment: Acetyltransferase biochemical assay (AlphaScreen), KAT7; settings: 1 μM AcCoA, histone H3.1
MOF-KAT8 = MOF-KAT8 (Homo sapiens (Human), UniProt Q9H7Z6); format: biochemical; settings: 1 μM AcCoA, histone H4
MOZ-KAT6A = MOZ-KAT6A (Homo sapiens (Human), UniProt Q92794); experiment: Acetyltransferase biochemical assay (AlphaScreen), KAT6A; settings: 1 μM AcCoA, histone H3.1
[1] = test system: acetylation of the histone H3K23 marker in U2OS cells; experiment: Histone H3 Lysine 23 Acetylation Biomarker Assay; format: cell-based; settings: Homo sapiens
Method: Compounds may be tested for their ability to inhibit acetylation of the histone H3K23 marker in the following assay:
The cell line U2OS was seeded at a density of 9,000 cells per well in 96 well optical quality tissue culture plates in RPMI medium and 10% foetal bovine serum, and allowed to adhere for 24 hours under standard culture conditions (37 degree Celsius, 5% CO2). At the end of this period the medium was aspirated. […] After incubation for 24 hours, the cells were fixed with 3.7% formaldehyde in PBS for 20 minutes at room temperature, washed (5×5 minutes) with phosphate buffer saline containing 0.1% Tween 20 and blocked with Odyssey blocking buffer (LI-COR, Lincoln, NE) containing 0.1% TritonX100. Anti-H3K23ac specific antibody (Abcam ab177275) in Odyssey blocking buffer containing 0.1% Tween 20 was added and incubated for 16 hours at 4 degree Celsius. […] Plates were washed as previously and read on a PerkinElmer Phenix high content imaging platform.

[2] = test system: histone H2A.Z Lysine 7 acetylation marker in U2OS cells; experiment: H2A.Z Lysine 7 Acetylation Biomarker Assay; format: cell-based; settings: Homo sapiens
Method: Compounds may be tested for their ability to inhibit the histone H2A.Z Lysine 7 acetylation marker in the following assay:
(§1) The cell line U2OS was seeded at a density of 3,000 cells per well in 384-well optical quality tissue culture plates in RPMI medium supplemented with 10% foetal bovine serum and 10 mM Hepes. The cells were allowed to adhere for 24 hours under standard culture conditions (37 degree Celsius, 5% CO2). At the end of this period the cells were washed with serum free medium. […] Plates were washed and read on a PerkinElmer Opera HCS high content imaging platform.

[3] = test system: acetylation of the histone H3 Lysine 14 marker in U2OS cells; experiment: Histone H3 Lysine 14 Acetylation Biomarker Assay; format: cell-based; settings: Homo sapiens
Method: Compounds may be tested for their ability to inhibit acetylation of the histone H3 Lysine 14 marker in the following assay:
as §1

Sequence of HBO-KAT7 (O95251 other isoform, or with tags, fused parts or gaps): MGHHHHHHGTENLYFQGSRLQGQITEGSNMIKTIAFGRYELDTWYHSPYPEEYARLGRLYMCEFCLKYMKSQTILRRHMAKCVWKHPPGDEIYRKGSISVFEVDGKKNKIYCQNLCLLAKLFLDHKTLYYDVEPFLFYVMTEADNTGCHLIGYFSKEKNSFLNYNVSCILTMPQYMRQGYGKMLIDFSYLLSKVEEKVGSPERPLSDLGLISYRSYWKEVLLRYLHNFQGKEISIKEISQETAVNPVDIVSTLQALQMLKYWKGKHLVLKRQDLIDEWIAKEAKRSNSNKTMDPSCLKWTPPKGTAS
Sequence of MOF-KAT8 (Q9H7Z6 177-447): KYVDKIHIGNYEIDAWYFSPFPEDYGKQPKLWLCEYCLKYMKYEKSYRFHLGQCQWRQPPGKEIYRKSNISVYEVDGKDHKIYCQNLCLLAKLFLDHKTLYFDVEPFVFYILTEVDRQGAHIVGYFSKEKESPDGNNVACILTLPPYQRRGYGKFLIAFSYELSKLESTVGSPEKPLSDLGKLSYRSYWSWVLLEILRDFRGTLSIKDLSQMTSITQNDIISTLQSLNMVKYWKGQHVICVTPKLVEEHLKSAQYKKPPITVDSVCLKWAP
Sequence of TIP60-KAT5 (Q92993 other isoform, or with tags, fused parts or gaps): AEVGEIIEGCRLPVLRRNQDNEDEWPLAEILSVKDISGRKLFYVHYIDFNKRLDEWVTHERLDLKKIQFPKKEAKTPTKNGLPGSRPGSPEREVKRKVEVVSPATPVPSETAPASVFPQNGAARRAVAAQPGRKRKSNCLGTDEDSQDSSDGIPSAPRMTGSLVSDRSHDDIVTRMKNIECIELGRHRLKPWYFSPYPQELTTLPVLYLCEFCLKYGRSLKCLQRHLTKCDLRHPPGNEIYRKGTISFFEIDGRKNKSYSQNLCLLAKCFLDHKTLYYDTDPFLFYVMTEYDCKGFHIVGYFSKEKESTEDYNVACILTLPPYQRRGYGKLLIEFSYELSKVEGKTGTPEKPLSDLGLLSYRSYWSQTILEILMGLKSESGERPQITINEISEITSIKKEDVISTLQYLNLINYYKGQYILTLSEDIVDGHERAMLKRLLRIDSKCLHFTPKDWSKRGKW
Sequence of MOZ-KAT6A (Q92794 other isoform, or with tags, fused parts or gaps): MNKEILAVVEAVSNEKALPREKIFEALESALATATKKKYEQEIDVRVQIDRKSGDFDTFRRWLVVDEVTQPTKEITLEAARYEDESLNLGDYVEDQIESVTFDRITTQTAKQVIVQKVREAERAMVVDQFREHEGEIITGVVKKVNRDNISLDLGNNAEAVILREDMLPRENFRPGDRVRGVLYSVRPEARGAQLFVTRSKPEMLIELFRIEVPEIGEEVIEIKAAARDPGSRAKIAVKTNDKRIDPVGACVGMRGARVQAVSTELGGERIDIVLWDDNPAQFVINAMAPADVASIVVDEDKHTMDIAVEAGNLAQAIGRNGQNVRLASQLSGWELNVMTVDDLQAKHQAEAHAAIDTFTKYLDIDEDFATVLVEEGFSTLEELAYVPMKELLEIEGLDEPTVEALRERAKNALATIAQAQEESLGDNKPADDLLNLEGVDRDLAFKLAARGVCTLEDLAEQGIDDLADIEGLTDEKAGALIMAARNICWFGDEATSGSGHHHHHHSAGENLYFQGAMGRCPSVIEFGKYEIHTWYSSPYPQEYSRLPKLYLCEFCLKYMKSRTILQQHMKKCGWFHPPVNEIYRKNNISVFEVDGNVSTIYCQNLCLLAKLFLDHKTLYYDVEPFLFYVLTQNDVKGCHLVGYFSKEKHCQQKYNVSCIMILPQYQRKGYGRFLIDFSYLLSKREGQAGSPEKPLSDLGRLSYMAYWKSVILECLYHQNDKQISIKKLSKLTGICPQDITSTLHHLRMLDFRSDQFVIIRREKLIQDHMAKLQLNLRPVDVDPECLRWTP

Compound: O=S(=O)(Nc1cc(-c2ccccc2)on1)c1cccc(Cl)c1 [Example 35, 3-chloro-N-(5-phenylisoxazol-3-yl)benzenesulfonamide]
- IC50 (TIP60-KAT5): > 125 µM
- IC50 (HBO-KAT7): > 125 µM

Compound: O=S(=O)(Nc1cc(-c2ccccc2)on1)c1ccc(C(F)(F)F)cc1 [Example 47, N-(5-phenylisoxazol-3-yl)-4-(trifluoromethyl)benzenesulfonamide]
- IC50 (TIP60-KAT5): > 125 µM

Compound: O=S(=O)(Nc1cc(-c2ccccc2)on1)c1ccccc1 [Example 63, N-(5-phenylisoxazol-3-yl)benzenesulfonamide]
- IC50 (MOF-KAT8): > 125 µM

Compound: CCc1ccc(OC)c(S(=O)(=O)Nc2cc(-c3ccncc3)no2)c1 [Example 85, 5-Ethyl-2-methoxy-N-(3-(pyridin-4-yl)isoxazol-5-yl)benzenesulfonamide]
- IC50 (TIP60-KAT5): > 125 µM

Compound: COC(=O)c1c(-c2ccc(OC)cc2)noc1NS(=O)(=O)c1ccc(C)c(C)c1 [Example 83, methyl 5-((3,4-dimethylphenyl)sulfonamido)-3-(4-methoxyphenyl)isoxazole-4-carboxylate]
- IC50 (HBO-KAT7): > 125 µM

Compound: COc1cccc(OC)c1S(=O)(=O)Nc1nnc(-c2ccccc2Cn2cccn2)s1 [Example 101, N-(5-(2-((1H-Pyrazol-1-yl)methyl)phenyl)-1,3,4-thiadiazol-2-yl)-2,6-dimethoxybenzenesulfonamide]
- IC50 (TIP60-KAT5): > 125 µM
- IC50 (MOZ-KAT6A): > 125 µM

Compound: COc1ccccc1-c1cc(N(C)S(=O)(=O)c2c(OC)cc(-c3ccccc3)cc2OC)no1 [Example 55, 2,6-Dimethoxy-N-[5-(2-methoxyphenyl)isoxazol-3-yl]-N-methyl-4-phenyl-benzenesulfonamide]
- IC50 (TIP60-KAT5): > 125 µM
- IC50 (MOF-KAT8): > 125 µM

Compound: N#Cc1cccc(S(=O)(=O)Nc2cc(-c3ccccc3)on2)c1 [Example 46, 3-cyano-N-(5-phenylisoxazol-3-yl)benzenesulfonamide]
- IC50 (TIP60-KAT5): > 125 µM

Compound: COc1cccc(S(=O)(=O)Nc2cc(-c3ccccc3)on2)c1 [Example 36, 3-methoxy-N-(5-phenylisoxazol-3-yl)benzenesulfonamide]
- IC50 (TIP60-KAT5): > 125 µM

Compound: CCc1ccc(OC)c(S(=O)(=O)Nc2nnc(-c3ccc(OC)c(OC)c3)o2)c1 [Example 125, N-(5-(3,4-Dimethoxyphenyl)-1,3,4-oxadiazol-2-yl)-5-ethyl-2-methoxybenzenesulfonamide]
- IC50 (TIP60-KAT5): > 125 µM

Compound: O=S(=O)(Nc1noc(-c2ccccc2)n1)c1ccccc1F [Example 68, 2-Fluoro-N-(5-phenyl-1,2,4-oxadiazol-3-yl)benzenesulfonamide]
- IC50 (TIP60-KAT5): > 125 µM
- IC50 (HBO-KAT7): > 125 µM

Compound: N#Cc1ccc(S(=O)(=O)Nc2cc(-c3ccccc3)on2)cc1 [Example 45, 4-cyano-N-(5-phenylisoxazol-3-yl)benzenesulfonamide]
- IC50 (TIP60-KAT5): > 125 µM
- IC50 (MOF-KAT8): > 125 µM

Compound: O=S(=O)(Nc1cc(-c2ccccc2)on1)c1cccnc1 [Example 30, N-(5-phenylisoxazol-3-yl)pyridine-3-sulfonamide]
- IC50 (TIP60-KAT5): > 125 µM
- IC50 (HBO-KAT7): > 125 µM

Compound: COc1ccccc1-c1nnc(NS(=O)(=O)C2CCOCC2)s1 [Example 127, N-(5-(2-methoxyphenyl)-1,3,4-thiadiazol-2-yl)tetrahydro-2H-pyran-4-sulfonamide]
- IC50 (TIP60-KAT5): > 125 µM
- IC50 (MOZ-KAT6A): > 125 µM

Compound: CCc1ccc(OC)cc1-c1cc(NS(=O)(=O)c2c(OC)cccc2OC)no1 [Example 23, N-(5-(2-Ethyl-5-methoxyphenyl)isoxazol-3-yl)-2,6-dimethoxybenzenesulfonamide]
- IC50 ([1]; H3K23ac, U2OS cells, 24 hours, read-out: IC50): 0.178 µM
- IC50 ([2]; H2A.ZK7ac, U2OS cells, serum free medium, 24 hours, read-out: IC50): 9.99 µM
- IC50 ([3]; H3K14ac, U2OS cells, serum free medium, 24 hours, read-out: IC50): 0.216 µM

Compound: COc1ccc(OC)c(-c2cc(NS(=O)(=O)c3c(OC)cc(-c4ccccc4)cc3OC)no2)c1 [Example 6, N-(5-(2,5-Dimethoxyphenyl)isoxazol-3-yl)-3,5-dimethoxy-[1,1′-biphenyl]-4-sulfonamide]
- IC50 ([1]; U2OS, 24 h): 0.471 µM
- IC50 ([2]; U2OS, 24 h): 1.35 µM
- IC50 ([3]; U2OS, 24 h): 0.526 µM

From patent US20240277683A1, “COMPOUNDS” (CTXT PTY LTD, priority 2018, published 2024)
